Patent US20100029620A1, “SUBSTITUTED TRIAZOLINE, TETRAZOLONE AND IMIDAZOLONE DERIVATIVES FOR USE AS A MEDICINE” (JANSSEN PHARMACEUTICA N.V., priority 2004, published 2010)

Legend:
[1] = target: T1, human adrenergic-α2B receptor (Homo sapiens, UniProt P18089); assay: Radioligand binding experiment for α2B-adrenoceptor ([3H]-raulwolscine competition, CHO cell membranes); conditions: [3H]raulwolscine 1 nM, membranes of CHO cells transfected with human α2B receptor; for IC50: read-out: pIC50 α2B (converted)
T1 construct: expressed in transfected cells; membrane preparation
T1 sequence (P18089 1-450): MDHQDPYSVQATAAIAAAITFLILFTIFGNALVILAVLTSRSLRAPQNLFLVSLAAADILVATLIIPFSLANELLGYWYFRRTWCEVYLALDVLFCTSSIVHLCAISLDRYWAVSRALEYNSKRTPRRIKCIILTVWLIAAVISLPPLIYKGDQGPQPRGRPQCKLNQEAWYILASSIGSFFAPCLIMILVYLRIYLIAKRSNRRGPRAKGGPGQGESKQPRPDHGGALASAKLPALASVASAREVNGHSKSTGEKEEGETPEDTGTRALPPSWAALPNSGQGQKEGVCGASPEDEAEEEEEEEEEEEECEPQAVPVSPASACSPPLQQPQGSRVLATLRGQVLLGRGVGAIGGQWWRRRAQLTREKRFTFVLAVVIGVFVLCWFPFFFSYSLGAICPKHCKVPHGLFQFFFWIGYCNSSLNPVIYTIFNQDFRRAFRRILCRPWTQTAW
Protocol: (§1) The interaction of the compounds of Formula (I) with α2C-adrenoceptor receptors was assessed in in vitro radioligand binding experiments. In general, a low concentration of a radioligand with a high binding affinity for a particular receptor or transporter is incubated with a sample of a tissue preparation enriched in a particular receptor or transporter or with a preparation of cells expressing cloned human receptors in a buffered medium. During the incubation, the radioligand binds to the receptor or transporter. When equilibrium of binding is reached, the receptor bound radioactivity is separated from the non-bound radioactivity, and the receptor- or transporter-bound activity is counted. The interaction of the test compounds with the receptor is assessed in competition binding experiments. Various concentrations of the test compound are added to the incubation mixture containing the receptor- or transporter preparation and the radioligand. The test compound in proportion to its binding affinity and its concentration inhibits binding of the radioligand. The radioligand used for […] receptor binding was [^3H]-raulwolscine.
(§2) CHO cells, stabile transfected with human adrenergic-α2A-, -α2B or α2C receptor cDNA, were cultured in Dulbecco's Modified Eagle's Medium (DMEM)/Nutrient mixture Ham's F12 (ratio 1:1)(Gibco, Gent-Belgium) supplemented with 10% heat inactivated fetal calf serum (Life Technologies, Merelbeke-Belgium) and antibiotics (100 IU/ml penicillin G, 100 μg/ml streptomycin sulphate, 110 μg/ml pyruvic acid and 100 μg/ml L-glutamine). One day before collection, cells were induced with 5 mM sodiumbutyrate. Upon 80-90% of confluence, cells were scraped in phosphate buffered saline without Ca^2+ and Mg^2+ and collected by centrifugation at 1500×g for 10 min. The cells were homogenised in Tris-HCl 50 mM using an Ultraturrax homogenizer and centrifuged for 10 min at 23,500×g. The pellet was washed once by resuspension and rehomogenization and the final pellet was resuspended in Tris-HCl, divided in 1 ml aliquots and stored at −70° C.
(§3) Membranes were thawed and re-homogenized in incubation buffer (glycylglycine 25 mM, pH 8.0). In a total volume of 500 μl, 2-10 μg protein was incubated with [^3H]raulwolscine (NET-722) (New England Nuclear, USA) (1 nM final concentration) with or without competitor for 60 min at 25° C. followed by rapid filtration over GF/B filter using a Filtermate196 harvester (Packard, Meriden, Conn.). Filters were rinsed extensively with ice-cold rinsing buffer (Tris-HCl 50 mM pH 7.4). Filter-bound radioactivity was determined by scintillation counting in a Topcount (Packard, Meriden, CT) and results were expressed as counts per minute (cpm). Non-specific binding was determined in the presence of 1 μM oxymetazoline for hα2A- and hα2B receptors and 1 μM spiroxatrine for hα2C receptors.
(§4) Data from assays in the presence of compound were calculated as a percentage of total binding measured in the absence of test compound. Inhibition curves, plotting percent of total binding versus the log value of the concentration of the test compound, were automatically generated, and sigmoidal inhibition curves were fitted using non-linear regression. The pIC50 values of test compounds were derived from individual curves.

[2] = target: T2, human adrenergic-α2A receptor (Homo sapiens, UniProt P08913); assay: Radioligand binding experiment for α2A-adrenoceptor ([3H]-raulwolscine competition, CHO cell membranes); conditions: [3H]raulwolscine 1 nM, membranes of CHO cells transfected with human α2A receptor; read-out: pIC50 α2A (converted)
T2 construct: expressed in transfected cells; membrane preparation
T2 sequence (P08913 1-465): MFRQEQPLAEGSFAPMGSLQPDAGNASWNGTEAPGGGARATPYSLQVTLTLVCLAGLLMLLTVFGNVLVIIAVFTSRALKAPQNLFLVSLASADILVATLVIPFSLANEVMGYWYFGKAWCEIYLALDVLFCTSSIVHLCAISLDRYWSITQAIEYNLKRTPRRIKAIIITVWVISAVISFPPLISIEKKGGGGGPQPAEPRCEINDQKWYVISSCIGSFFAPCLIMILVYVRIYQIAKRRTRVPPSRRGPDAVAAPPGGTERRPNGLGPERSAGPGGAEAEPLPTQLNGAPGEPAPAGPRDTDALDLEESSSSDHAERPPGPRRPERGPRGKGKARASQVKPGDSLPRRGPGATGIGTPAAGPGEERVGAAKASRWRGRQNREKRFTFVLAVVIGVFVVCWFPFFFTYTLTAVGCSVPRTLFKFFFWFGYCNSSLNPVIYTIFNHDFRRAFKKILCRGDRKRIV
Protocol: as §1, §2, §3, §4

[3] = target: T3, human adrenergic-α2C receptor (Homo sapiens, UniProt P18825); assay: Radioligand binding experiment for α2C-adrenoceptor ([3H]-raulwolscine competition, CHO cell membranes); conditions: [3H]raulwolscine 1 nM, membranes of CHO cells transfected with human α2C receptor; for IC50: read-out: pIC50 α2C (converted)
T3 construct: expressed in transfected cells; membrane preparation
T3 sequence (P18825 1-462): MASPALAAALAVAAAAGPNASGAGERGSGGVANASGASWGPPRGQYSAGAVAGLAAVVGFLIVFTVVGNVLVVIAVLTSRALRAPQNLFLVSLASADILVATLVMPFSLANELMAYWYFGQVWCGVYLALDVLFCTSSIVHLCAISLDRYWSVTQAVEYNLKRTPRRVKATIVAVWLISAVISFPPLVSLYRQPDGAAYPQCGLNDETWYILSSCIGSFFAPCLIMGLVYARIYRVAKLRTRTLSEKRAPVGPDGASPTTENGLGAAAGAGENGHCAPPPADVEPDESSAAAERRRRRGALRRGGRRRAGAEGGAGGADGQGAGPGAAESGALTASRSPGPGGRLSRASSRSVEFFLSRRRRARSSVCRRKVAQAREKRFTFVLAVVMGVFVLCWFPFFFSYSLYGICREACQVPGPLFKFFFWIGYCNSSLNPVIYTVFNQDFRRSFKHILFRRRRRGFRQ
Protocol: as §1, §2, §3, §4

Row | SMILES | IC50 [1] [nM] | IC50 [2] [nM] | IC50 [3] [nM] | pIC50 α2B [1] | pIC50 α2C [3]
1 | CN1CCCN(c2ccc(-n3cnn(CCNCCOc4ccccc4)c3=O)cc2)CC1 [compound 12] | 100 | 126 | 1.58 | – | –
2 | CN1CCCN(Cc2ccc(-n3cnn(CCNCCOc4ccccc4)c3=O)cc2)CC1 [compound 13] | 63.1 | 63.1 | 1 | – | –
3 | O=c1n(-c2ccc(CN3CCCC3)cc2)cnn1CCNCCOc1ccccc1 [compound 14] | 79.4 | 50.1 | 1 | – | –
4 | O=c1n(CCN2CCCCC2)cnn1CCNCCOc1ccccc1 [compound 16] | 1580 | 158 | 10 | – | –
5 | O=c1n(-c2ccc(CN3CCC(O)CC3)cc2)cnn1CCNCCOc1ccccc1 [compound 18] | 126 | 50.1 | 1.58 | – | –
6 | CCOC(=O)C1CCN(Cc2ccc(-n3cnn(CCNCCOc4ccccc4)c3=O)cc2)CC1 [compound 19] | 251 | 63.1 | 3.16 | – | –
7 | O=c1n(-c2ccc(N3CCC(N4CCCC4)CC3)cc2)cnn1CCNCCOc1ccccc1 [compound 20] | 100 | 100 | 3.98 | – | –
8 | O=c1n(-c2ccc(CN3CCC(N4CCCC4)CC3)cc2)cnn1CCNCCOc1ccccc1 [compound 21] | 79.4 | 39.8 | 1.58 | – | –
9 | O=c1n(-c2ccc(CN3CCOCC3)cc2)cnn1CCNCCOc1ccccc1 [compound 23] | 251 | 158 | 3.16 | – | –
10 | O=c1n(-c2ccc(CN3CCOCC3)cc2)cnn1CCNCCOc1ccccc1 [compound 24] | – | 251 | 5.01 | 6.6 | –
11 | O=c1n(-c2ccc(CN3CCc4ccccc4C3)cc2)cnn1CCNCCOc1ccccc1 [compound 27] | 79.4 | 25.1 | 1 | – | –
12 | C/C(=C\c1ccccc1)CN1CCC(n2cnn(CCNCCOc3ccccc3)c2=O)CC1 [compound 28] | 200 | 126 | – | – | 8.4
13 | C/C(=C\c1ccccc1)CN1CCC(n2cnn(CCNCCOc3ccccc3)c2=O)CC1 [compound 29] | 126 | 100 | 3.98 | – | –
14 | C/C(=C\c1ccccc1)CN1CCC(n2cnn(CCN(C)CCOc3ccccc3)c2=O)CC1 [compound 30] | 200 | 398 | 15.8 | – | –
15 | C/C(=C\c1ccccc1)CN1CCC(n2cnn(-c3ccc(NCCN(C)C)cc3)c2=O)CC1 [compound 31] | 25.1 | 50.1 | 12.6 | – | –
16 | C/C(=C\c1ccccc1)CN1CCC(n2cnn(Cc3ccc(CN)cc3)c2=O)CC1 [compound 32] | 50.1 | 126 | 12.6 | – | –

Row | SMILES | IC50 [1] [nM] | IC50 [2] [nM] | IC50 [3] [nM] | pIC50 α2B [1] | pIC50 α2C [3]
17 | C/C(=C\c1ccccc1)CN1CCC(n2cnn(-c3ccc(CN)cc3)c2=O)CC1 [compound 33] | 63.1 | 15.8 | 15.8 | – | –
18 | C/C(=C\c1ccccc1)CN1CCC(n2ncn(-c3ccc(CN)cc3)c2=O)CC1 [compound 34] | 50.1 | 39.8 | 10 | – | –
19 | NCc1ccc(-n2cnn(C3CCN(CCOc4ccccc4)CC3)c2=O)cc1 [compound 36] | 79.4 | 39.8 | 12.6 | – | –
20 | NCc1ccc(Cn2cnn(C3CCN(CCOc4ccccc4)CC3)c2=O)cc1 [compound 37] | 25.1 | 39.8 | 3.98 | – | –
21 | CN(C)CCNc1ccc(-n2cnn(CC3CCN(CCOc4ccccc4)CC3)c2=O)cc1 [compound 38] | 3.98 | 25.1 | 1.58 | – | –
22 | C/C(=C\c1ccccc1)CN1CCC(Cn2ncn(-c3ccc(NCCN(C)C)cc3)c2=O)CC1 [compound 39] | 7.94 | 63.1 | 10 | – | –
23 | CN(C)CCNc1ccc(-n2cnn(CCC3CCN(CCOc4ccccc4)CC3)c2=O)cc1 [compound 40] | 0.631 | 3.98 | 0.794 | – | –
24 | C/C(=C\c1ccccc1)CN1CCC(CCn2ncn(-c3ccc(NCCN(C)C)cc3)c2=O)CC1 [compound 41] | 1.26 | 6.31 | 1.58 | – | –
25 | CN(CCNc1ccc(-n2cnn(CC3CCN(CCOc4ccccc4)CC3)c2=O)cc1)CC1CCCCC1 [compound 42] | 7.94 | 25.1 | 1 | – | –
26 | CN(CCNc1ccc(-n2cnn(CC3CCN(CCOc4ccccc4)CC3)c2=O)cc1)Cc1ccccc1 [compound 43] | 6.31 | 25.1 | 1.58 | – | –
27 | O=c1n(CCNCCOc2ccccc2)cnn1CCN1CCCCC1 [compound 44] | 3980 | 126 | 10 | – | –
28 | O=c1n(CCNCCOc2ccccc2)cnn1-c1ccc(CN2CCOCC2)cc1 [compound 45] | 200 | 316 | 20 | – | –
29 | CN(Cc1ccccc1)C(=O)Cn1cnn(CC2CCN(CCOc3ccccc3)CC2)c1=O [compound 46] | 158 | 126 | 6.31 | – | –
30 | O=C(Cn1cnn(CC2CCN(CCOc3ccccc3)CC2)c1=O)Nc1ccc(F)cc1 [compound 47] | 39.8 | 79.4 | 3.98 | – | –
31 | O=c1n(-c2ccc(NCc3ccc(F)cc3)cc2)cnn1CC1CCN(CCOc2ccccc2)CC1 [compound 48] | 25.1 | 200 | 3.16 | – | –
32 | CN1CCN(CCCNc2ccc(-n3cnn(CC4CCN(CCOc5ccccc5)CC4)c3=O)cc2)CC1 [compound 49] | 6.31 | 63.1 | 3.98 | – | –
